Results reported in PubChem BioAssay (NCI).
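Dose response: 5 concentrations. Exposure: 48 h. Format: 96-well plates. Endpoint: linear interpolation; highest concentration if not reached. GI50 is the concentration that inhibits growth by half. At the TGI there is no net growth.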

Legend:
Experiment in all cases: NCI tumour cell line growth inhibition, 48 h
ACHN renal = system: ACHN renal
DLD-1 colon = system: DLD-1 colon
DMS 114 small cell lung = system: DMS 114 small cell lung
DMS 273 small cell lung = system: DMS 273 small cell lung
HOP-18 NSCLC = system: HOP-18 NSCLC
LXFL 529 NSCLC = system: LXFL 529 NSCLC
M19-MEL melanoma = system: M19-MEL melanoma
SF-268 CNS = system: SF-268 CNS
SNB-78 CNS = system: SNB-78 CNS
XF 498 CNS = system: XF 498 CNS
KM20L2 colon = system: KM20L2 colon
P388 leukemia = system: P388 leukemia
P388/ADR leukemia = system: P388/ADR leukemia
SN12K1 renal = system: SN12K1 renal

Structure (SMILES)	TGI (ACHN renal) [µM]	TGI (SF-268 CNS) [µM]	other results
O=c1cc(-c2cccnc2)[nH]c2cc3c(cc12)OCO3	> 100	> 100	TGI (DLD-1 colon): > 100 µM; TGI (DMS 114 small cell lung): > 100 µM; TGI (DMS 273 small cell lung): > 100 µM; TGI (HOP-18 NSCLC): 84.1 µM; TGI (LXFL 529 NSCLC): 26.8 µM; TGI (M19-MEL melanoma): > 100 µM; TGI (SNB-78 CNS): > 100 µM; TGI (XF 498 CNS): 72.7 µM
CC1C(C#N)(C#N)C(C#N)=C(N)C1(Cl)[N+](=O)[O-] (stereo unspecified)	23.7	28.7	–
CC(=O)OC(Cc1c(O)c2c(C)cccc2oc1=O)C(C)(C)O (stereo unspecified)	> 100	> 100	–
C=C1C[C@H](O)[C@H](Br)C(C)(C)C12CCC(C)(Cl)C(Br)C2 (stereo partly specified)	14.8	20.8	–
C[C@@H]1CC[C@@]2(OC1)O[C@H]1C[C@H]3[C@@H]4CC[C@H]5C[C@@H](OC6OC(CO)C(OC7OC(CO)C(O)C(OC8OCC(O)C(O)C8O)C7OC7OC(CO)C(O)C(O)C7O)C(O)C6O)[C@H](O)C[C@]5(C)[C@H]4CC[C@]3(C)[C@H]1[C@@H]2C (stereo partly specified)	8.87	23.7	–
O=c1cc(-c2ccccc2)[nH]c2nccn12	> 10	> 10	–
O=C(c1ccccc1)N1C(=S)N(c2ccccn2)C(=Nc2ccccc2)C1=Nc1ccccc1	35.3	> 100	–
Cc1n(Cc2ccccc2)nc2sc(N)n[n+]12	> 100	> 100	–
CSc1nc2c(c(=O)[nH]1)N=C(c1ccccc1)CC(c1ccccc1)N2 (stereo unspecified)	75.3	–	–
CN(C)c1ccc(C=C2C(=O)NC(=S)NC2=O)c2ccccc12	> 100	76.9	–
CCOC(=O)c1c(NC(=S)Nc2ccccc2)sc2c1CCOC2	> 100	> 100	–
Cc1ccc(N/C(SCc2ccccc2)=C(\C(Cl)=C(Cl)Cl)[N+](=O)[O-])c(C)c1	> 100	29.8	–
O=C(CC(Cl)=C(Cl)Cl)c1ccccc1	> 100	> 100	–
CCOC(=O)NN(C(=O)OCC)c1c(C)cc(C)cc1C	–	> 100	–
COC(=O)CCC(NC(=O)OC(C)(C)C)C(=O)NC(Cc1ccc(NC(=O)CCCC(C)=O)cc1)C(=O)NC(CCC(=O)OC)C(=O)OC (stereo unspecified)	> 100	> 100	–
N#Cc1c(-c2ccccc2)c(CN2CCCCC2)c(=O)n2c1[nH]c1ccccc12	> 100	> 100	–
Cc1ccc2c(/C=C/c3ccc(N(C)C)cc3)ccc(C(C)C)cc1-2	> 100	> 100	–
O=C(c1cc2c(c3ccccc13)NC1(CCCCC1)N=C2C(F)(F)F)C(F)(F)F	13.8	20	–
N#Cc1c(O)c(/C=N/c2ncccn2)c(=O)n2c1[nH]c1ccccc12	–	> 100	–
CC(=O)Nc1cccc(N=NN(C)C)c1	–	> 100	TGI (DLD-1 colon): > 31.6 µM; TGI (DMS 114 small cell lung): > 100 µM; TGI (DMS 273 small cell lung): > 100 µM; TGI (HOP-18 NSCLC): > 100 µM; TGI (KM20L2 colon): > 100 µM; TGI (M19-MEL melanoma): > 100 µM; TGI (P388 leukemia): > 100 µM; TGI (P388/ADR leukemia): > 100 µM; TGI (SN12K1 renal): > 100 µM; TGI (SNB-78 CNS): > 100 µM; TGI (XF 498 CNS): > 100 µM
CCOc1ccc(N/C(=C(/C(Cl)=C(/Cl)NC(C)(C)C)[N+](=O)[O-])n2nnc3ccccc32)cc1	> 100	42.7	–
CC(=O)Oc1ccc2c3c1O[C@H]1[C@H](O)CC[C@@]4(O)[C@@H](C2)N(C)CC[C@]314	> 100	> 100	–
O=C1CC(=O)NC(=NNS(=O)(=O)c2ccc(Cl)cc2)N1	> 100	> 100	–

Structure (SMILES)	TGI (ACHN renal) [µM]	TGI (SF-268 CNS) [µM]	other results
NS(=O)(=O)c1ccc(/C=C/c2ccc(O)cc2)cc1	7.75	> 100	GI50 (ACHN renal): 2.28 µM; GI50 (SF-268 CNS): 31.5 µM
CCOC1CC(C)N(C(=O)c2ccccc2)O1 (stereo unspecified)	> 100	> 100	–
CC(C)N(C(C)C)S(=O)(=O)C[C@]12CC[C@H](CC13OCC(CS(=O)(=O)c1ccccc1)O3)C2(C)C (stereo partly specified)	> 100	> 100	–
Cc1cnc2[nH]c(-c3ccc4ccccc4c3)cc(=O)c2c1	> 100	> 100	–
CCOC(=O)c1cccc(NC(=O)CI)c1	1.99	–	–
C#CC1(O)CCCCCCCCC2(CCCCCCCC1)OCCO2	27.3	34.2	–
O=C(N/N=C/c1cc(Br)cc(Br)c1[O-])c1ccccc1O.O=C(N/N=C/c1cc(Br)cc(Br)c1[O-])c1ccccc1O.[Co+2]	11.1	13.9	TGI (KM20L2 colon): 11.6 µM
COc1cc(OC)c2[nH]c3c(O)c(-c4c(C)cc5c([nH]c6c(OC)cc(OC)cc65)c4O)c(C)cc3c2c1	15.8	15.9	–
ClCCCCCc1c2nc(c(CCCCCCl)c3ccc([nH]3)c(CCCCCCl)c3ccc([nH]3)c(CCCCCCl)c3nc1C=C3)C=C2	> 100	> 100	–
Nc1nc(-c2ccco2)cc(-c2ccc(CO)o2)n1	> 100	> 100	TGI (DMS 114 small cell lung): > 100 µM; TGI (DMS 273 small cell lung): > 100 µM; TGI (KM20L2 colon): > 100 µM; TGI (LXFL 529 NSCLC): > 100 µM; TGI (M19-MEL melanoma): > 100 µM; TGI (SNB-78 CNS): > 100 µM; TGI (XF 498 CNS): > 100 µM
CNc1nc(C(N)=O)c(N)s1	> 100	> 100	–
ON=C(CC(O)(C(F)(F)Cl)C(F)(F)Cl)CC(O)(C(F)(F)Cl)C(F)(F)Cl	> 10	> 10	–
CCOC(=O)c1nc2ccc(C(F)(F)F)cc2nc1Oc1ccc(C(=O)OC)cc1	> 100	> 100	–
O=C1CC(NCc2ccccc2)c2c(Cl)sc(Cl)c21 (stereo unspecified)	52.8	50.2	–
CC1=C(C)SC(=C2Sc3nc(O)[nH]c(=O)c3S2)S1	> 100	> 100	–
COc1cccc(C2c3cc4c(cc3OC(Nc3ccccc3)C2C)OCO4)c1OC (stereo unspecified)	> 100	> 100	–
O=CN1CCN(C(=O)c2ccc(Cl)c(Cl)c2)C1=S	31.6	39.3	–
OC1CSc2nc3ccccc3n2C1 (stereo unspecified)	> 100	> 100	–
CCOC(=O)c1nnc2c(C#N)c(-c3ccccc3)c(C)n2c1N	> 100	> 100	–
O=[N+]([O-])c1ccc(NNN=Nc2ccc(-c3nc4ccccc4s3)cc2)c([N+](=O)[O-])c1	57.3	> 100	–
c1ccc([I+]c2ccccc2)cc1	> 100	> 100	–
CCC1NC(N=Nc2ccc([N+](=O)[O-])cc2)(P(=O)(OC(C)C)OC(C)C)OC1=O (stereo unspecified)	> 100	> 100	TGI (DLD-1 colon): > 100 µM; TGI (DMS 273 small cell lung): > 100 µM; TGI (KM20L2 colon): > 100 µM; TGI (LXFL 529 NSCLC): > 100 µM; TGI (M19-MEL melanoma): > 100 µM; TGI (SNB-78 CNS): > 100 µM; TGI (XF 498 CNS): > 100 µM
